This passage reports IC50 results from patent publication US12653809B2, “Urea, amide, and substituted heteroaryl compounds for CBL-B inhibition” (Nurix Therapeutics, Inc., priority 2019, dated 2026).

SMILES strings stand for the structures. Like-named read-outs stand apart in the source and are kept apart here.

A word on the IC50: it is the midpoint of a concentration-inhibition curve.

For the experiment, the target named is T1, Cbl-b (truncated variant, UniProt number Q13191) (Homo sapiens, UniProt Q13191).
T1 construct: made in house
The experiment can be described thus: Cbl-b activity assay (TR-FRET, interaction of Cbl-b with UbcH5B-Ub). Format: biochemical. From the text:
As described in Biological Example 1A, a Cbl-b activity assay (Cbl-b inhibition assay) used to measure the IC50 values for Cbl-b inhibition uses a mixture comprising candidate compound, Cbl-b (truncated, with an Avitag, and biotinylated), a fluorescently-labeled E2 enzyme UbcH5B labelled with ubiquitin conjugated to BODIPY-fluorescein (UbcH5B-Ub), streptavidin-terbium, and assay buffer. In one embodiment, the Cbl-b activity assay (Cbl-b inhibition assay) used to measure IC50 for inhibition of Cbl-b uses the conditions described in Biological Example 1A with 12 nM Cbl-b. […] In another embodiment, the Cbl-b activity assay (Cbl-b inhibition assay) used to measure IC50 for inhibition of Cbl-b uses the conditions described in Biological Example 1B, with candidate compound, 0.125 nM Cbl-b (truncated, with an avitag, and biotinylated), fluorescently labelled inhibitor probe, and assay buffer. Displacement of the inhibitor probe indicates Cbl-b activity.
Candidate compounds isolated from screening assays were evaluated for their ability to bind and inhibit Cbl-b, an E3 ubiquitin-protein ligase.
The ability of candidate compounds to inhibit Cbl-b activity was measured by monitoring the interaction of Cbl-b with UbcH5B-Ub in the presence of the candidate compound. A truncated variant of Cbl-b (UniProt number Q13191; SEQ ID NO:1) containing an Avitag at its N-terminus was co-expressed with BirA biotin ligase and purified using a standard protocol (see Dou et al., Nature Structural and Molecular Biology 8: 982-987, 2013; Avidity LLC).
Fluorescently labeled UbcH5B-Ub was prepared by conjugating ubiquitin (Ub), labeled at its N-terminus with Bodipy-Fluorescein, to UbcH5B, an E2 enzyme, harboring a cysteine to lysine mutation at position 85. This mutation is similar to a mutation that was previously reported (see Dou et al., Nature Structural and Molecular Biology 8: 982-987, 2013). Cbl-b activity assays were performed in a 384-well plate at room temperature in a 10 μL reaction volume by pre-incubating 12 nM Cbl-b (final concentration) in an assay buffer containing 50 mM HEPES pH 7.0, 100 mM NaCl, 0.01% Triton X-100, 0.01% BSA, and 1 mM DTT in the presence of a candidate compound in 1% DMSO (final concentration, High Conditions) for one hour. After incubation in the presence of the candidate compound, the plate was incubated for an additional 1.5 hours in the presence of 60 nM Src kinase with 1 mM ATP and 5 mM MgCl2 (final concentrations). Alternatively, compounds were tested as described above with assay buffer containing 50 mM NaCl instead of 100 mM NaCl and 30 nM Src kinase instead of 60 nM Src kinase (Low Conditions). Src kinase was prepared as previously described (see Kobashigawa et al., Proc Natl Acad Sci USA, 108: 20579-20584, 2011). […] The plate was incubated for one hour. Following the one hour incubation, the plates were read for TR-FRET signal at 520/620 nm using Envision plate reader (Perkin Elmer). The presence of a FRET signal that indicated Cbl-b was not inhibited by the compound candidate. The absence of a FRET signal indicated Cbl-b was inhibited by the compound candidate and was therefore a Cbl-b inhibitor.
The resulting data for the Cbl-b activity assays were analyzed using standard methods to report the IC50 values of the tested compounds (Tables 3-4). The resulting data for the Cbl-b binding assay was solvent corrected and double-referenced prior to analysis. All data were globally fit to a steady-state affinity and kinetic binding model where applicable. Compounds were ranked into bins A through D as follows for IC50: A indicates <0.1 μM, B indicates 0.1 μM≤IC50<1 μM, C indicates 1 μM≤IC50<5 μM, and D indicates 5 μM≤IC50.
In general terms: TR-FRET usually uses a lanthanide donor and a delayed reading to cut background.

Setting [1] is: high conditions: 100 mM NaCl, 60 nM Src kinase, 12 nM Cbl-b, read-out: Cbl-b activity IC50.
[2] abbreviates: Biological Example 1A, low or high conditions not stated, read-out: IC50 values in the Cbl-b inhibition assay of Biological Example 1A.
The mark [3] stands for this setting: low conditions: 50 mM NaCl, 30 nM Src kinase, 12 nM Cbl-b, read-out: Cbl-b activity IC50.

T1 sequence (Q13191 36-427): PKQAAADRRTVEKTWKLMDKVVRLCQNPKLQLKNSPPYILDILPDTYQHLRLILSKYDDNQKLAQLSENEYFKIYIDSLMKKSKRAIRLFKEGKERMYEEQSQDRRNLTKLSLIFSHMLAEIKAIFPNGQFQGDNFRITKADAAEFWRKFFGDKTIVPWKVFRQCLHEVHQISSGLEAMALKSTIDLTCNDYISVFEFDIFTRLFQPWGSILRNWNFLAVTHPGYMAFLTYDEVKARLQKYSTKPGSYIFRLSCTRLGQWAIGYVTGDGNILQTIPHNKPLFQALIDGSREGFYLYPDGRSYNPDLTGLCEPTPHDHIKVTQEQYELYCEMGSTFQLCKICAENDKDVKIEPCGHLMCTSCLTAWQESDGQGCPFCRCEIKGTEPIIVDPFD

Take `Cn1cnnc1C(F)(F)[C@](C)(F)c1cccc(NC(=O)N2CCOc3cccnc32)c1` [Example 24, (R)—N-(3-(1,1,2-trifluoro-1-(4-methyl-4H-1,2,4-triazol-3-yl)propan-2-yl)phenyl)-2,3-dihydro-4H-pyrido[3,2-b][1,4]oxazine-4-carboxamide]: the IC50 under setting [1] was in the range of 0.1 to 1 µM.
Same read-out and setting: next, `Cn1cnnc1[C@@H]1C[C@@H]1c1cccc(NC(=O)N2CCOc3cccnc32)c1` [Example 25, N-(3-((1S,2R)-2-(4-methyl-4H-1,2,4-triazol-3-yl)cyclopropyl)phenyl)-2,3-dihydro-4H-pyrido[3,2-b][1,4]oxazine-4-carboxamide]: 0.1 to 1 µM.
Still for that read-out and setting: next, `Cn1cnnc1CC1(c2cccc(NC(=O)N3CC4(CCNC4)Oc4cccnc43)c2)COC1` (centres unmarked) [Example 26, N-(3-(3-((4-methyl-4H-1,2,4-triazol-3-yl)methyl)oxetan-3-yl)phenyl)spiro[pyrido[3,2-b][1,4]oxazine-2,3′-pyrrolidine]-4(3H)-carboxamide]: less than 0.1 µM; `Cn1cnnc1CC1(c2cccc(NC(=O)N3CC4(CNC4)Oc4cccnc43)c2)COC1` [Example 27, N-(3-(3-((4-methyl-4H-1,2,4-triazol-3-yl)methyl)oxetan-3-yl)phenyl)spiro[azetidine-3,2′-pyrido[3,2-b][1,4]oxazine]-4′(3′H)-carboxamide]: less than 0.1 µM; `Cn1cnnc1C(F)(F)[C@](C)(F)c1cccc(NC(=O)N2CC3(CNC3)Oc3cccnc32)c1` [Example 28, (R)—N-(3-(1,1,2-trifluoro-1-(4-methyl-4H-1,2,4-triazol-3-yl)propan-2-yl)phenyl)spiro[azetidine-3,2′-pyrido[3,2-b][1,4]oxazine]-4′(3′H)-carboxamide]: less than 0.1 µM.
The same measure, in the same setting: next, `CN1CC2(C1)CN(C(=O)Nc1cccc(C3(Cc4nncn4C)COC3)c1)c1ncccc1O2` [Example 29, 1-methyl-N-(3-(3-((4-methyl-4H-1,2,4-triazol-3-yl)methyl)oxetan-3-yl)phenyl)spiro[azetidine-3,2′-pyrido[3,2-b][1,4]oxazine]-4′(3′H)-carboxamide]: less than 0.1 µM; `Cn1cnnc1CC1(c2cccc(NC(=O)N3CC4(CCNCC4)c4cccnc43)c2)COC1` [Example 30, N-(3-(3-((4-methyl-4H-1,2,4-triazol-3-yl)methyl)oxetan-3-yl)phenyl)spiro[piperidine-4,3′-pyrrolo[2,3-b]pyridine]-1′(2′H)-carboxamide]: less than 0.1 µM.
With `CN1CCC2(CC1)CN(C(=O)Nc1cccc(C3(Cc4nncn4C)COC3)c1)c1ncccc12` [Example 31, 1-methyl-N-(3-(3-((4-methyl-4H-1,2,4-triazol-3-yl)methyl)oxetan-3-yl)phenyl)spiro[piperidine-4,3′-pyrrolo[2,3-b]pyridine]-1′(2′H)-carboxamide], the concentration for half-maximal inhibition (IC50) runs as follows: under setting [2], 0.1 to 1 µM; under setting [1], 0.1 to 1 µM.
For the compound `Cn1cnnc1CC1(c2cccc(N3CC4C(C(F)(F)F)CCN4C3=O)c2)COC1` (centres unmarked) [Example 32, 2-(3-(3-((4-methyl-4H-1,2,4-triazol-3-yl)methyl)oxetan-3-yl)phenyl)-7-(trifluoromethyl)hexahydro-3H-pyrrolo[1,2-c]imidazol-3-one], the IC50 was in the range of 1 to 5 µM under setting [2] and 1 to 5 µM under setting [1].
On to `CC(Sc1nncn1C)c1cccc(C(=O)Nc2ccccc2)c1` (centres unmarked) [Example 33, 3-(1-((4-methyl-4H-1,2,4-triazol-3-yl)thio)ethyl)-N-phenylbenzamide], for which the IC50 under setting [3] was not below 5 µM.
As for `CC(Sc1nncn1C)c1cccc(C(=O)Nc2ccccn2)c1` (centres unmarked) [Example 34, 3-(1-((4-methyl-4H-1,2,4-triazol-3-yl)thio)ethyl)-N-(pyridin-2-yl)benzamide], the IC50 under setting [3] is not below 5 µM.
For `C[C@H](Sc1nncn1C)c1cccc(C(=O)Nc2ccc3ccccc3n2)c1` [Example 35, (S)-3-(1-((4-methyl-4H-1,2,4-triazol-3-yl)thio)ethyl)-N-(quinolin-2-yl)benzamide], the IC50 under setting [1] was not below 5 µM.
As to `C[C@H](Sc1nncn1C)c1cccc(C(=O)Nc2cc(C(F)(F)F)ccn2)c1` [Example 36, (S)-3-(1-((4-methyl-4H-1,2,4-triazol-3-yl)thio)ethyl)-N-(4-(trifluoromethyl)pyridin-2-yl)benzamide], the IC50 was in the range of 1 to 5 µM under setting [2] and 1 to 5 µM under setting [1].
In the case of `Cn1cnnc1CC1(c2cccc(C(=O)Nc3cccc(C4CC4)n3)c2)COC1` [Example 37, N-(6-cyclopropylpyridin-2-yl)-3-(3-((4-methyl-4H-1,2,4-triazol-3-yl)methyl)oxetan-3-yl)benzamide], the IC50 under setting [2] was not below 5 µM and the IC50 under setting [1] is not below 5 µM.
With `Cc1cccc(NC(=O)c2cccc(C3(Cc4nncn4C)COC3)c2)n1` [Example 38, 3-(3-((4-methyl-4H-1,2,4-triazol-3-yl)methyl)oxetan-3-yl)-N-(6-methylpyridin-2-yl)benzamide], the IC50 is not below 5 µM under setting [2] and not below 5 µM under setting [1].
Consider `Cc1cnnc(NC(=O)Nc2cccc([C@H](C)Sc3nncn3C)c2)c1` [Example 39, (S)-1-(3-(1-((4-methyl-4H-1,2,4-triazol-3-yl)thio)ethyl)phenyl)-3-(5-methylpyridazin-3-yl)urea], for which the IC50 reads like this: under setting [2], 1 to 5 µM; under setting [1], 1 to 5 µM.
Turning to `C[C@H](Sc1nncn1C)c1cccc(NC(=O)N2CC3CCCC3C2)c1` (stereo partly drawn) [Example 40, N-(3-((S)-1-((4-methyl-4H-1,2,4-triazol-3-yl)thio)ethyl)phenyl)hexahydrocyclopenta[c]pyrrole-2(1H)-carboxamide], the IC50 lay within 1 to 5 µM under setting [2] and 1 to 5 µM under setting [1].
As to `CC1CCN(C(=O)Nc2cccc([C@H](C)Sc3nncn3C)c2)C1` (stereo partly drawn) [Example 41, 3-methyl-N-(3-((S)-1-((4-methyl-4H-1,2,4-triazol-3-yl)thio)ethyl)phenyl)pyrrolidine-1-carboxamide], the IC50 under setting [1] is not below 5 µM.
The same measure, in the same setting: next, `CC1CN(C(=O)Nc2cccc([C@H](C)Sc3nncn3C)c2)CC(C)O1` (stereo partly drawn) [Example 42, 2,6-dimethyl-N-(3-((S)-1-((4-methyl-4H-1,2,4-triazol-3-yl)thio)ethyl)phenyl)morpholine-4-carboxamide]: not below 5 µM; `C[C@H](Sc1nncn1C)c1cccc(NC(=O)N2CCOC3(CCC3)C2)c1` [Example 43, (S)—N-(3-(1-((4-methyl-4H-1,2,4-triazol-3-yl)thio)ethyl)phenyl)-5-oxa-8-azaspiro[3.5]nonane-8-carboxamide]: not below 5 µM; `C[C@H](Sc1nncn1C)c1cccc(NC(=O)N2CCn3nccc3C2)c1` [Example 44, (S)—N-(3-(1-((4-methyl-4H-1,2,4-triazol-3-yl)thio)ethyl)phenyl)-6,7-dihydropyrazolo[1,5-a]pyrazine-5(4H)-carboxamide]: not below 5 µM.
Turning to `C[C@H](Sc1nncn1C)c1cccc(NC(=O)N2Cc3cccc(O)c3C2)c1` [Example 45, (S)-4-hydroxy-N-(3-(1-((4-methyl-4H-1,2,4-triazol-3-yl)thio)ethyl)phenyl)isoindoline-2-carboxamide], the IC50 reads like this: under setting [2], 0.1 to 1 µM; under setting [1], 0.1 to 1 µM.
On to `C[C@H](Sc1nncn1C)c1cccc(NC(=O)N2Cc3cnn(C)c3C2)c1` [Example 46, (S)-1-methyl-N-(3-(1-((4-methyl-4H-1,2,4-triazol-3-yl)thio)ethyl)phenyl)-4,6-dihydropyrrolo[3,4-c]pyrazole-5(1H)-carboxamide], for which the IC50 lay within 1 to 5 µM under setting [2] and 1 to 5 µM under setting [1].
